Results reported in patent US9346815B2, “5-chloro-2-difluoromethoxyphenyl pyrazolopyrimidine compounds, compositions and methods of use thereof” (Genentech, Inc., priority 2014, dated 2016).

Experiments:
[1] = biological target: isolated recombinant JAK1 kinase domain (Homo sapiens (Human), UniProt P23458); assay: JAK1 enzyme assay (Caliper LabChip, peptide phosphorylation); assay type: biochemical; conditions: isolated recombinant JAK1 kinase domain, 25 μM ATP
[2] = biological target: isolated recombinant JAK2 kinase domain (Homo sapiens (Human), UniProt O60674); assay: JAK2 enzyme assay (Caliper LabChip, peptide phosphorylation); assay type: biochemical; conditions: 25 μM ATP
Chain of isolated recombinant JAK2 kinase domain (O60674 849-1124): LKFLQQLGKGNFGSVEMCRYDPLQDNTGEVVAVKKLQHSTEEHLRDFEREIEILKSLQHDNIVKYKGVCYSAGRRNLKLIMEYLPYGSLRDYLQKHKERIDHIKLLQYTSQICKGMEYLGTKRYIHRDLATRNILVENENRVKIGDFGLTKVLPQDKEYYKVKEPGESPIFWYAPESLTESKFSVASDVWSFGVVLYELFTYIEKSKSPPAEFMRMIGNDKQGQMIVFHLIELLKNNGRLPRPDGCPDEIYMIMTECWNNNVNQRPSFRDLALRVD

Chain of isolated recombinant JAK1 kinase domain (P23458 875-1153): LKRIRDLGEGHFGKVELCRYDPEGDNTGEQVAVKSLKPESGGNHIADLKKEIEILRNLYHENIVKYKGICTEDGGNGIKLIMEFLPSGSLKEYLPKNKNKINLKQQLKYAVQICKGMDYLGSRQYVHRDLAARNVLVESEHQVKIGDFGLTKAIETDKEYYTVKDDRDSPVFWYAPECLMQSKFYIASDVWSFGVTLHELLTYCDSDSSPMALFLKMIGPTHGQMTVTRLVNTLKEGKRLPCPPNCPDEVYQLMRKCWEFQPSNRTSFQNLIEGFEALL

Structure (SMILES)	Ki [1]	Ki [2]
O=C(Nc1cn(CC(=O)N2CCN(c3ccccc3)CC2)nc1-c1cc(Cl)ccc1OC(F)F)c1cnn2cccnc12 [Example 236, N-[3-[5-chloro-2-(difluoromethoxy)phenyl]-1-[2-oxo-2-(4-phenylpiperazin-1-yl)ethyl]pyrazol-4-yl]pyrazolo[1,5-a]pyrimidine-3-carboxamide]	0.41 nM	0.74 nM
O=C(Nc1cn(CC(=O)N2CCCN(CCO)CC2)nc1-c1cc(Cl)ccc1OC(F)F)c1cnn2cccnc12 [Example 240, N-[3-[5-chloro-2-(difluoromethoxy)phenyl]-1-[2-[4-(2-hydroxyethyl)-1,4-diazepan-1-yl]-2-oxo-ethyl]pyrazol-4-yl]pyrazolo[1,5-a]pyrimidine-3-carboxamide]	1 nM	1.68 nM
O=C(Nc1cn(CC(=O)N2CCN3CCCCC3C2)nc1-c1cc(Cl)ccc1OC(F)F)c1cnn2cccnc12 (centres unmarked) [Example 241, N-[1-[2-(1,3,4,6,7,8,9,9a-octahydropyrido[1,2-a]pyrazin-2-yl)-2-oxo-ethyl]-3-[5-chloro-2-(difluoromethoxy)phenyl]pyrazol-4-yl]pyrazolo[1,5-a]pyrimidine-3-carboxamide]	0.87 nM	1.25 nM
CN1[C@@H]2CC[C@H]1CN(C(=O)Cn1cc(NC(=O)c3cnn4cccnc34)c(-c3cc(Cl)ccc3OC(F)F)n1)C2 [Example 242, N-[3-[5-chloro-2-(difluoromethoxy)phenyl]-l-[2-[(1S,5R)-8-methyl-3,8-diazabicyclo[3.2.1]octan-3-yl]-2-oxo-ethyl]pyrazol-4-yl]pyrazolo[1,5-a]pyrimidine-3-carboxamide]	0.95 nM	1.03 nM
CN1CCN(C(=O)Cn2cc(NC(=O)c3c(N)nn4cccnc34)c(-c3cc(Cl)ccc3OC(F)F)n2)CC1 [Example 243, 2-amino-N-[3-[5-chloro-2-(difluoromethoxy)phenyl]-1-[2-(4-methylpiperazin-1-yl)-2-oxo-ethyl]pyrazol-4-yl]pyrazolo[1,5-a]pyrimidine-3-carboxamide]	0.49 nM	0.36 nM
Nc1nn2cccnc2c1C(=O)Nc1cn(CC(=O)N2CCN(CCO)CC2)nc1-c1cc(Cl)ccc1OC(F)F [Example 244, 2-amino-N-[3-[5-chloro-2-(difluoromethoxy)phenyl]-1-[2-[4-(2-hydroxyethyl)piperazin-1-yl]-2-oxo-ethyl]pyrazol-4-yl]pyrazolo[1,5-a]pyrimidine-3-carboxamide]	0.49 nM	0.24 nM
CCN1CCN(C(=O)Cn2cc(NC(=O)c3c(N)nn4cccnc34)c(-c3cc(Cl)ccc3OC(F)F)n2)CC1 [Example 247, 2-amino-N-[3-[5-chloro-2-(difluoromethoxy)phenyl]-1-[2-(4-ethylpiperazin-1-yl)-2-oxo-ethyl]pyrazol-4-yl]pyrazolo[1,5-a]pyrimidine-3-carboxamide]	0.55 nM	0.3 nM
Nc1nn2cccnc2c1C(=O)Nc1cn(CC(=O)N2CCN(CC3CC3)CC2)nc1-c1cc(Cl)ccc1OC(F)F [Example 248, 2-amino-N-[3-[5-chloro-2-(difluoromethoxy)phenyl]-1-[2-[4-(cyclopropyl-methyl)piperazin-1-yl]-2-oxo-ethyl]pyrazol-4-yl]pyrazolo[1,5-a]pyrimidine-3-carboxamide]	0.62 nM	0.39 nM
CN(CCc1ccccc1)Cc1nc(-c2cc(Cl)ccc2OC(F)F)c(NC(=O)c2cnn3cccnc23)s1 [Example 261, N-[4-[5-chloro-2-(difluoromethoxy)phenyl]-2-[[methyl(2-phenylethyl)amino]methyl]thiazol-5-yl]pyrazolo[1,5-a]pyrimidine-3-carboxamide]	17.9 nM	10.2 nM
Nc1nn2cccnc2c1C(=O)Nc1cn(CC(=O)N2CCOC(CO)C2)nc1-c1cc(Cl)ccc1OC(F)F (centres unmarked) [Example 273, 2-amino-N-[3-[5-chloro-2-(difluoromethoxy)phenyl]-1-[2-[2-(hydroxy-methyl)morpholin-4-yl]-2-oxo-ethyl]pyrazol-4-yl]pyrazolo[1,5-a]pyrimidine-3-carboxamide]	0.49 nM	0.23 nM
O=C(Nc1cn(CC(=O)N2CCOC(CO)C2)nc1-c1cc(Cl)ccc1OC(F)F)c1cnn2cccnc12 (centres unmarked) [Example 277, N-[3-[5-chloro-2-(difluoromethoxy)phenyl]-1-[2-[2-(hydroxy-methyl)morpholin-4-yl]-2-oxo-ethyl]pyrazol-4-yl]pyrazolo[1,5-a]pyrimidine-3-carboxamide]	0.51 nM	0.83 nM
Nc1nn2cccnc2c1C(=O)Nc1cn(CC(=O)N2CCC(O)(Cc3ccccc3)CC2)nc1-c1cc(Cl)ccc1OC(F)F [Example 279, 2-amino-N-[1-[2-(4-benzyl-4-hydroxy-1-piperidyl)-2-oxo-ethyl]-3-[5-chloro-2-(difluoromethoxy)phenyl]pyrazol-4-yl]pyrazolo[1,5-a]pyrimidine-3-carboxamide]	0.39 nM	0.22 nM
N#CC1(c2ccccc2)CCN(C(=O)Cn2cc(NC(=O)c3c(N)nn4cccnc34)c(-c3cc(Cl)ccc3OC(F)F)n2)CC1 [Example 283, 2-amino-N-[3-[5-chloro-2-(difluoromethoxy)phenyl]-1-[2-(4-cyano-4-phenyl-1-piperidyl)-2-oxo-ethyl]pyrazol-4-yl]pyrazolo[1,5-a]pyrimidine-3-carboxamide]	0.55 nM	0.29 nM
Nc1nn2cccnc2c1C(=O)Nc1cn(CC(=O)N2CCC(Oc3ccccc3)CC2)nc1-c1cc(Cl)ccc1OC(F)F [Example 285, 2-amino-N-[3-[5-chloro-2-(difluoromethoxy)phenyl]-1-[2-oxo-2-(4-phenoxy-1-piperidyl)ethyl]pyrazol-4-yl]pyrazolo[1,5-a]pyrimidine-3-carboxamide]	0.61 nM	0.47 nM
Nc1nn2cccnc2c1C(=O)Nc1cn(CC(=O)N2CCC(O)(c3ccccc3)CC2)nc1-c1cc(Cl)ccc1OC(F)F [Example 286, 2-amino-N-[3-[5-chloro-2-(difluoromethoxy)phenyl]-1-[2-(4-hydroxy-4-phenyl-1-piperidyl)-2-oxo-ethyl]pyrazol-4-yl]pyrazolo[1,5-a]pyrimidine-3-carboxamide]	0.54 nM	0.26 nM

These reach a lower Ki [1]. Values come first.

Ki [1]	Ki [2]	Structure (SMILES)
0.35 nM	0.22 nM	COCCN1CCN(C(=O)Cn2cc(NC(=O)c3c(N)nn4cccnc34)c(-c3cc(Cl)ccc3OC(F)F)n2)CC1 [Example 245, 2-amino-N-[3-[5-chloro-2-(difluoromethoxy)phenyl]-1-[2-[4-(2-methoxyethyl)piperazin-1-yl]-2-oxo-ethyl]pyrazol-4-yl]pyrazolo[1,5-a]pyrimidine-3-carboxamide]
0.35 nM	0.65 nM	O=C(Nc1cn(CC(=O)N2CCC(F)(F)C2)nc1-c1cc(Cl)ccc1OC(F)F)c1cnn2cccnc12 [Example 287, N-[3-[5-chloro-2-(difluoromethoxy)phenyl]-1-[2-(3,3-difluoropyrrolidin-1-yl)-2-oxo-ethyl]pyrazol-4-yl]pyrazolo[1,5-a]pyrimidine-3-carboxamide]
0.33 nM	0.83 nM	CC1(O)CCN(C(=O)Cn2cc(NC(=O)c3cnn4cccnc34)c(-c3cc(Cl)ccc3OC(F)F)n2)C1 (centres unmarked) [Example 269, N-[3-[5-chloro-2-(difluoromethoxy)phenyl]-1-[2-(3-hydroxy-3-methyl-pyrrolidin-1-yl)-2-oxo-ethyl]pyrazol-4-yl]pyrazolo[1,5-a]pyrimidine-3-carboxamide]
0.33 nM	0.78 nM	O=C(Nc1cn(CC(=O)N2CCC(O)(CO)CC2)nc1-c1cc(Cl)ccc1OC(F)F)c1cnn2cccnc12 [Example 272, N-[3-[5-chloro-2-(difluoromethoxy)phenyl]-1-[2-[4-hydroxy-4-(hydroxymethyl)-1-piperidyl]-2-oxo-ethyl]pyrazol-4-yl]pyrazolo[1,5-a]pyrimidine-3-carboxamide]
0.32 nM	0.76 nM	N#Cc1ccc(N2CCN(C(=O)Cn3cc(NC(=O)c4cnn5cccnc45)c(-c4cc(Cl)ccc4OC(F)F)n3)CC2)cc1 [Example 237, N-[3-[5-chloro-2-(difluoromethoxy)phenyl]-1-[2-[4-(4-cyanophenyl)piperazin-1-yl]-2-oxo-ethyl]pyrazol-4-yl]pyrazolo[1,5-a]pyrimidine-3-carboxamide]
0.31 nM	0.89 nM	O=C(Nc1cn(CC(=O)N2CCC(OCCO)CC2)nc1-c1cc(Cl)ccc1OC(F)F)c1cnn2cccnc12 [Example 275, N-[3-[5-chloro-2-(difluoromethoxy)phenyl]-1-[2-[4-(2-hydroxyethoxy)-1-piperidyl]-2-oxo-ethyl]pyrazol-4-yl]pyrazolo[1,5-a]pyrimidine-3-carboxamide]
0.3 nM	0.38 nM	O=C(Nc1cn(CC(=O)N2CCC(O)(c3ccccc3)CC2)nc1-c1cc(Cl)ccc1OC(F)F)c1cnn2cccnc12 [Example 289, N-[3-[5-chloro-2-(difluoromethoxy)phenyl]-1-[2-(4-hydroxy-4-phenyl-1-piperidyl)-2-oxo-ethyl]pyrazol-4-yl]pyrazolo[1,5-a]pyrimidine-3-carboxamide]
0.24 nM	0.11 nM	Nc1nn2cccnc2c1C(=O)Nc1cn(CC(=O)N2CCOCC2)nc1-c1cc(Cl)ccc1OC(F)F [Example 290, 2-amino-N-[3-[5-chloro-2-(difluoromethoxy)phenyl]-1-(2-morpholino-2-oxo-ethyl)pyrazol-4-yl]pyrazolo[1,5-a]pyrimidine-3-carboxamide]
0.23 nM	0.18 nM	O=C(Nc1cn(CC(=O)N2CCC(O)(c3ccncc3)CC2)nc1-c1cc(Cl)ccc1OC(F)F)c1cnn2cccnc12 [Example 276, N-[3-[5-chloro-2-(difluoromethoxy)phenyl]-1-[2-[4-hydroxy-4-(4-pyridyl)-1-piperidyl]-2-oxo-ethyl]pyrazol-4-yl]pyrazolo[1,5-a]pyrimidine-3-carboxamide]
0.17 nM	0.12 nM	Nc1nn2cccnc2c1C(=O)Nc1cn(CC(=O)N2CCC(F)(F)C2)nc1-c1cc(Cl)ccc1OC(F)F [Example 282, 2-amino-N-[3-[5-chloro-2-(difluoromethoxy)phenyl]-1-[2-(3,3-difluoropyrrolidin-1-yl)-2-oxo-ethyl]pyrazol-4-yl]pyrazolo[1,5-a]pyrimidine-3-carboxamide]
